Here are results for one molecule from article PMC7979524 (Pharmacological research, 2021).

One test deals with adenosine A2A receptor (Homo sapiens, UniProt P29274). It is filed as cell-based.
The next test concerns the target T1, adenosine A2B receptor (Homo sapiens, UniProt P29275).
T1 sequence (P29275 1-332): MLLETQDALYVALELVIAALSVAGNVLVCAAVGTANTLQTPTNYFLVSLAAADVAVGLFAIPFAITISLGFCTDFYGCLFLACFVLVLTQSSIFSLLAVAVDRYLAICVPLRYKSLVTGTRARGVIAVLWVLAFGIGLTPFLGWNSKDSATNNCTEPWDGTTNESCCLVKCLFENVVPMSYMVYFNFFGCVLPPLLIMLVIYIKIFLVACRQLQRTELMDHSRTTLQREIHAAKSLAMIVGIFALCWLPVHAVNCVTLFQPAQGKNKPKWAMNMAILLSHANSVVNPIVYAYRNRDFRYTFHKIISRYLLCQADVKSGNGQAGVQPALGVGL
The class given is cell-based.

Structures are written as SMILES. pKi: −log10 of the molar value.

adenosine A2A receptor, sequence (P29274 whole entry): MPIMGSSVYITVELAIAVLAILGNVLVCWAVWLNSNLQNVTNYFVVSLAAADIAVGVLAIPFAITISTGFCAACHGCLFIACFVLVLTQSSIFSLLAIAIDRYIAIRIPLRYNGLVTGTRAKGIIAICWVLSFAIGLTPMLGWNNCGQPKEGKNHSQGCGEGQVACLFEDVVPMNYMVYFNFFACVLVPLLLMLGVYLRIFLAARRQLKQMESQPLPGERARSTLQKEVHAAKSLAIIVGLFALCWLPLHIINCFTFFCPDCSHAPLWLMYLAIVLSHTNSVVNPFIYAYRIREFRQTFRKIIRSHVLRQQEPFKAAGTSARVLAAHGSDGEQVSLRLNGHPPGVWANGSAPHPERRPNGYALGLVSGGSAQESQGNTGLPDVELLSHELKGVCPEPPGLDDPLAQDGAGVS

What is called pKi is −log10 of the Ki, conventionally taken in molar units. A lower pKi goes with a large Ki. Regarding `COc1cc(/C=C\C(=O)CC(=O)/C=C/c2ccc(O)c(OC)c2)ccc1O` [CTCUR, cis-trans curcumin], the negative logarithm of the Ki (pKi) on adenosine A2A receptor is 5.29; on adenosine A2B receptor, 5.17.
